Source: patent US20260284091A1, “IMIDAZOLE LOADED GLYCYRRHIZIC ACID HYDROGELS” (KATHOLIEKE UNIVERSITEIT LEUVEN, priority 2023, published 2026)

Tests used:
Assay in all cases: Growth inhibition and biocidal activity evaluation of glycyrrhizic acid hydrogels
[1] = system: Pseudomonas aeruginosa LMG9009; assay type: cell-based; settings: P. aeruginosa; bactericidal = 3 LOG reduction compared to the inoculum
Description: (§1) Escherichia coli UTI89, Pseudomonas aeruginosa LMG9009, Staphylococcus aureus ATCC6538, Klebsiella pneumoniae ATCC13883, Klebsiella aerogenes ATCC13048, Acinetobacter baumannii RD5SR3. Enterococcus faecalis LMG8148, Streptococcus pyogenes LMG 14237 and clinical isolates of a Staphylococcus epidermidis and a methicillin resistant S. aureus (MRSA), isolated from osteomyelitis patients were used. Prior to the experiments, all strains, except S. pyogenes were inoculated in Lysogeny broth (LB) and incubated overnight on 37° C. (200 rpm). Overnight cultures of S. pyogenes were grown micro-aerophilic in Brain-Heart infusion broth (BHI). Thereafter, the bacteria were normalized to roughly 5*10^5 CFU mL^−1. Lysogeny broth (LB; 10 g L^−1 NaCl, 10 g L^−1 Tryptone, 5 g L^−1 Yeast Extract) was used to create overnight cultures (ONC). Mueller Hinton Broth (MHB; 21 g L^−1 MHB) was used for the minimal inhibitory concentration (MIC) assays for all strain except S. pyogenes. For this strain, BHI was used. If LB agar, BHI agar or MHB agar was needed, 15 g L^−1 of bacteriological agar was added. MHB or BHI batches with varying pH were made by adding HCl or NaOH to acidify or alkalify the medium to the desired pH-value, respectively. Three different formulations of the glycyrrhizic acid hydrogels were made in dH2O:
(§2) (i) Hydrogel C with pH=3, (ii) Hydrogel B with pH=3.8 and (iii) Hydrogel A with pH=4.2. pH was measured at 70° C. and varied using HCl or NaOH to acidify or alkalify the formulation to the desired pH-value. Moreover, different concentration batches (mass by volume) were used for the hydrogels: 2.5%, 5%, 7,5%, 10%, 15% and 20%. Glycyrrhizic acid in solution—not a hydrogel—was prepared at pH 7,4.
(§3) To determine the growth inhibiting activity of glycyrrhizic acid in solution, 100 μL of different 1:2 dilutions of a 100 mg/mL stock solution of glycyrrhizic acid in MHB were added to the wells of a 96 well microtiter plate, after which 100 μL of a 5*10^5 CFU mL^−1 bacteria suspension in MHB was added to each well.
(§4) To determine the growth inhibiting activity of the glycyrrhizic acid hydrogels, the hydrogel was liquefied by heating to 70° C. When liquid, varying volumes of the liquid hydrogel (80 μL to 160 μL) were pipetted into a 96 well microtiter plate. After the hydrogel solidified, 120 μL of a 5*10^5 CFU mL^−1 bacteria suspension in MHB was added on top of the hydrogel.
(§5) To avoid evaporation, the plates were sealed using a membrane (Greiner Bio-one NV). After 24 hours of incubation (37° C., 200 rpm), the OD595 was measured and relative OD595 was calculated by dividing the OD595 by the average OD595 of the growth control (=growth of cells in MHB without glycyrrhizic acid).
(§6) To determine the biocidal activity of glycyrrhizic acid in solution and in hydrogel, at the end of the growth inhibition assay (see above), after incubation, 100 μL of the medium on top of the hydrogel was diluted 10 times in Phosphate saline buffer (PBS; 1.24 g L^−1 K2HPO4. 0.39 g L^−1 KH2PO4. 8.8 g L^−1 NaCl) and plated out on MHB agar plates by spreading 100 μL of the dilution. After incubating overnight at 37° C., colonies were counted and the colony forming units were determined.

[2] = system: Staphylococcus epidermidis; assay type: cell-based; settings: S. epidermidis; bactericidal = 3 LOG reduction compared to the inoculum
Description: as §1, §2, §3, §4, §5, §6

[3] = system: Acinetobacter baumannii RD5SR3; assay type: cell-based; settings: A. baumannii; bactericidal = 3 LOG reduction compared to the inoculum
Description: as §1, §2, §3, §4, §5, §6

[4] = system: Enterococcus faecalis LMG8148; assay type: cell-based; settings: bactericidal = 3 LOG reduction compared to the inoculum
Description: as §1, §2, §3, §4, §5, §6

[5] = system: Klebsiella aerogenes ATCC13048; assay type: cell-based; settings: K. aerogenes; bactericidal = 3 LOG reduction compared to the inoculum
Description: as §1, §2, §3, §4, §5, §6

Escherichia coli UTI89 = assay type: cell-based; settings: E. coli; bactericidal = 3 LOG reduction compared to the inoculum
Description: as §1, §2, §3, §4, §5, §6

[6] = system: Streptococcus pyogenes LMG 14237; assay type: cell-based
Description: as §1, §2, §3, §4, §5, §6

[7] = system: Klebsiella pneumoniae ATCC13883; assay type: cell-based; settings: K. pneumoniae; bactericidal = 3 LOG reduction compared to the inoculum
Description: as §1, §2, §3, §4, §5, §6

MRSA = assay type: cell-based, Methicillin-resistant Staphylococcus aureus; settings: bactericidal = 3 LOG reduction compared to the inoculum
Description: Escherichia coli UTI89, Pseudomonas aeruginosa LMG9009, Staphylococcus aureus ATCC6538, Klebsiella pneumoniae ATCC13883, Klebsiella aerogenes ATCC13048, Acinetobacter baumannii RD5SR3. Enterococcus faecalis LMG8148, Streptococcus pyogenes LMG 14237 and clinical isolates of a Staphylococcus epidermidis and a methicillin resistant S. aureus (MRSA), isolated from osteomyelitis patients were used. Prior to the experiments, all strains, except S. pyogenes were inoculated in Lysogeny broth (LB) and incubated overnight on 37° C. (200 rpm). Overnight cultures of S. pyogenes were grown micro-aerophilic in Brain-Heart infusion broth (BHI). Thereafter, the bacteria were normalized to roughly 5*10^5 CFU mL^−1. Lysogeny broth (LB; 10 g L^−1 NaCl, 10 g L^−1 Tryptone, 5 g L^−1 Yeast Extract) was used to create overnight cultures (ONC). […]
(i) Hydrogel C with pH=3, (ii) Hydrogel B with pH=3.8 and (iii) Hydrogel A with pH=4.2. pH was measured at 70° C. and varied using HCl or NaOH to acidify or alkalify the formulation to the desired pH-value. […]
as §5, with “acid). […]” for “acid).”

CC1(C)[C@@H](O[C@H]2O[C@H](C(=O)O)[C@@H](O)[C@H](O)[C@H]2O[C@@H]2O[C@H](C(=O)O)[C@@H](O)[C@H](O)[C@H]2O)CC[C@]2(C)[C@H]3C(=O)C=C4[C@@H]5C[C@@](C)(C(=O)O)CC[C@]5(C)CC[C@@]4(C)[C@]3(C)CC[C@@H]12 [GLY in solution, glycyrrhizic acid]
inhibited: growth inhibition ([6]; 50 mg/mL in solution, pH 7.0, only one of nine pathogens tested that was inhibited)
No effect: antibacterial effect (no effect, bacteriostatic, bactericidal) [1] | antibacterial effect (no effect, bacteriostatic, bactericidal) [2] | antibacterial effect (no effect, bacteriostatic, bactericidal) [3] | antibacterial effect (no effect, bacteriostatic, bactericidal) [4] | antibacterial effect (no effect, bacteriostatic, bactericidal) [5] | antibacterial effect (no effect, bacteriostatic, bactericidal) (Escherichia coli UTI89) | antibacterial effect (no effect, bacteriostatic, bactericidal) [7] | antibacterial effect (no effect, bacteriostatic, bactericidal) (MRSA)
Bacteriostatic: antibacterial effect (no effect, bacteriostatic, bactericidal) ([6]; Streptococcus, bactericidal = 3 LOG reduction compared to the inoculum)
